Data on 13 compounds can be found in patent US10738056B2 (Aduro BioTech, Inc., priority 2017, dated 2020).

Like-named read-outs stand apart in the source and are kept apart here.

In series [1] the test system is MCP-1/CCL2 secretion by Trex1-KO BMM. Briefly: Inhibition of MCP-1/CCL2 secretion by Trex1-KO bone marrow-derived macrophages. Format: cell-based, mice. More on the design: key to BMM IC50 M (MCP-1): A: an IC50 value less than 5 μM; B: an IC50 value between 5 and 20 μM; where an IC50 value could not be calculated from the data. As to conditions: for IC50: Mus musculus, Macrophage. The method in brief: (§1)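 Bone marrow macrophages from Trex1-KO mice, differentiated with M-CSF, 1×10^5 cells/well, treated overnight at 37 °C with a compound dilution series in FBS-free medium. Secreted cytokine measured by cytometric bead array from a standard curve, normalized to DMSO; viability by CellTiter-Glo.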

The subject of series [2] is Trex1-KO BMM. Kind of series: Viability of Trex1-KO BMM (Cell Titer Glo 2.0). The series is classed as cell-based, mice. As to conditions: Trex1-KO BMM at the cytokine IC50 concentrations. The procedure: The inhibition of secreted cytokine was measured in bone marrow-derived macrophages (BMMs) from diseased mice to evaluate the potency of compounds of the invention as described herein. […] To derive bone marrow macrophages, marrow extracted from the femurs and tibias were harvested from Trex1-KO mice was cultured in growth media supplemented with macrophage colony-stimulating factor (M-CSF). Differentiated BMM were harvested and frozen for subsequent experimentation. For treatment with compound C1089 (see Example 13), a frozen stock of Trex1-KO BMM was thawed and 1×10^5 cells were plated in 96 well format. BMMs were treated with a dilution series of C1089 and incubated overnight at 37° C. 5% CO2, at which point cellular supernatants were harvested and stored at −80° C. for subsequent analysis. The media used for this dilution series was without FBS. Remaining cells were evaluated for viability using Cell Titer Glo 2.0 kit according to the manufacturer instructions. BMM supernatants were evaluated for the secreted cytokine […] (RANTES/CCL5) or for secreted cytokine monocyte chemoattractant protein 1 (MCP-1/CCL2) using cytometric bead array mouse Flex Set kits (BD Biosciences). Cytokine concentration was calculated from a standard curve and normalized to vehicle (DMSO) treated cells.
A general note: Cellular ATP, detected with luciferase, serves as a proxy for viable cell number.

The target of series [3] is Human cGAS amino acids 155-522 (Homo sapiens (Human), UniProt Q8N884). Briefly: cGAS biochemical activity assay (ATP remaining, Kinase-Glo Max luminescence). Conditions: human cGAS 155-522, ATP remaining (Kinase-Glo Max); read-out: cGAS IC50.
Series [4] relates to cGAS/STING pathway in THP1 cells. Kind of series: THP1 cell-based cGAS/STING pathway activity assay (IRF-3-linked luciferase reporter). As to conditions: Homo sapiens, THP-1. In a few lines: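 THP1 cells carrying an IRF-3-driven luciferase reporter were read across a range of compound concentrations, and IC50 values were derived from these concentration responses; the assay upper limit was 100 μM.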
On the technique in general: In a reporter assay the amount or activity of a reporter protein is the signal.

The subject of series [5] is RANTES/CCL5 secretion by Trex1-KO BMM. Briefly: Inhibition of RANTES/CCL5 secretion by Trex1-KO bone marrow-derived macrophages. The series is classed as cell-based, mice. On the set-up: key to BMM IC50 R (RANTES): A: an IC50 value less than 5 μM; B: an IC50 value between 5 and 20 μM; where an IC50 value could not be calculated from the data. Conditions: for IC50: Mus musculus, Macrophage. The method in brief:
as §1

Series [6] in a line: Solubility of free base (footnote to Table 15). As to conditions: tested as the HCl salt. The series is classed as physicochemical.

Chain of Human cGAS amino acids 155-522 (Q8N884 157-522): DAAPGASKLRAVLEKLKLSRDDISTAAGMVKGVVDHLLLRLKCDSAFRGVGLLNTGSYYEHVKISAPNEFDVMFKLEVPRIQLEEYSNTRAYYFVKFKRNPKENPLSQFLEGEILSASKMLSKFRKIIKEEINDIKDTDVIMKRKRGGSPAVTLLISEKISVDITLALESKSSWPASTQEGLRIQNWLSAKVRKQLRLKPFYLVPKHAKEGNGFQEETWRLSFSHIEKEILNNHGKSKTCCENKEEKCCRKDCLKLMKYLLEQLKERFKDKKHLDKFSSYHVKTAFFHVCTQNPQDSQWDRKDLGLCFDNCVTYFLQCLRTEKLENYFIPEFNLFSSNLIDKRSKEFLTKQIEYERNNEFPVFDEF

As for `COc1cccc2oc(-c3c(C#N)[nH]c4c(-c5ccccc5)c(C(F)(F)F)nn4c3=O)nc12` [Compound C1089, 6-(4-methoxybenzo[d]oxazol-2-yl)-7-oxo-3-phenyl-2-(trifluoromethyl)-4,7-dihydropyrazolo[1,5-a]pyrimidine-5-carbonitrile], the IC50 was 6.97 µM in series [1] (overnight, media without FBS, normalized to DMSO, read-out: MCP-1/CCL2 IC50); less than 20 µM in series [3]; less than 20 µM in series [4]; 1.25 µM in series [5] (overnight, media without FBS, normalized to DMSO, read-out: RANTES/CCL5 IC50). In addition, the BMM viability in series [2] turned out to be 100%.

Regarding `COc1cc(CN)cc2oc(-c3c(C)[nH]c4c(-c5ccccc5)c(C(F)(F)F)nn4c3=O)nc12` [Compound C1128, 6-(6-(aminomethyl)-4-methoxybenzo[d]oxazol-2-yl)-5-methyl-3-phenyl-2-(trifluoromethyl)pyrazolo[1,5-a]pyrimidin-7(4H)-one], the IC50 in series [3] is greater than 250 µM. Moreover, the “solubility of the free base” value in series [6] was “insoluble”.

Take `COc1ccc(N)c2oc(-c3c(C)[nH]c4c(-c5ccccc5)c(C(F)(F)F)nn4c3=O)nc12` [Compound C1154, 6-(7-amino-4-methoxybenzo[d]oxazol-2-yl)-5-methyl-3-phenyl-2-(trifluoromethyl)pyrazolo[1,5-a]pyrimidin-7(4H)-one]: the “BMM IC50 M (MCP-1)” value in series [1] (MCP-1 secretion) is given as “C”. The IC50 in series [3] and in series [4] was less than 20 µM in each case. For the same compound, the “BMM IC50 R (RANTES)” value in series [5] (RANTES secretion) was “C”.

`COc1cc(Cl)cc2oc(-c3c(C)[nH]c4c(-c5ccccc5)c(C#N)nn4c3=O)nc12` [Compound C1160, 6-(6-chloro-4-methoxybenzo[d]oxazol-2-yl)-5-methyl-7-oxo-3-phenyl-4,7-dihydropyrazolo[1,5-a]pyrimidine-2-carbonitrile]: the “BMM IC50 M (MCP-1)” value in series [1] (MCP-1 secretion) is “C”. For the same compound, the IC50 in series [3] was less than 20 µM; in series [4] it was greater than 100 µM. Moreover, in series [5] (RANTES secretion), the “BMM IC50 R (RANTES)” value is listed as “C”.

For `COc1nccc2oc(-c3c(C)[nH]c4c(-c5ccccc5)c(C#N)nn4c3=O)nc12` [Compound C1167, 6-(4-methoxyoxazolo[4,5-c]pyridin-2-yl)-5-methyl-7-oxo-3-phenyl-4,7-dihydropyrazolo[1,5-a]pyrimidine-2-carbonitrile], the “BMM IC50 M (MCP-1)” value in series [1] (MCP-1 secretion) is reported as “C”. Also, the IC50 in series [3] and in series [4] was less than 20 µM in each case. In series [5] (RANTES secretion), the “BMM IC50 R (RANTES)” value is “C”.

For `Cc1[nH]c2c(-c3ccccc3)c(C(F)(F)F)nn2c(=O)c1-c1nc(C(=O)O)c(C2CCCCC2)o1` [Compound C1169, 5-cyclohexyl-2-(5-methyl-7-oxo-3-phenyl-2-(trifluoromethyl)-4,7-dihydropyrazolo[1,5-a]pyrimidin-6-yl)oxazole-4-carboxylic acid], the “BMM IC50 M (MCP-1)” value in series [1] (MCP-1 secretion) is “C”. For the same compound, the results for the IC50 in series [3] and in series [4] were less than 20 µM and 20 to 100 µM, respectively. Further, the “BMM IC50 R (RANTES)” value in series [5] (RANTES secretion) is “C”.

For `COc1cccc2oc(-c3c(CCC(=O)O)[nH]c4c(-c5ccccc5)c(C(F)(F)F)nn4c3=O)nc12` [Compound C1173, 3-(6-(4-methoxybenzo[d]oxazol-2-yl)-7-oxo-3-phenyl-2-(trifluoromethyl)-4,7-dihydropyrazolo[1,5-a]pyrimidin-5-yl)propanoic acid], in series [1] (MCP-1 secretion), the “BMM IC50 M (MCP-1)” value was “C”. The IC50 in series [3] was less than 20 µM; in series [4], 20 to 100 µM. The “BMM IC50 R (RANTES)” value in series [5] (RANTES secretion) is on record as “C”.

Turning to `COc1cc(N)cc2oc(-c3c(C)[nH]c4c(-c5ccccc5)c(C#N)nn4c3=O)nc12` [Compound C1175, 6-(6-amino-4-methoxybenzo[d]oxazol-2-yl)-5-methyl-7-oxo-3-phenyl-4,7-dihydropyrazolo[1,5-a]pyrimidine-2-carbonitrile], the “BMM IC50 M (MCP-1)” value in series [1] (MCP-1 secretion) is listed as “C”. For the same compound, the IC50 was less than 20 µM in series [3] and 20 to 100 µM in series [4]. In series [5] (RANTES secretion), the “BMM IC50 R (RANTES)” value is listed as “C”.

Take `COc1ccc(Cl)c2oc(-c3c(C)[nH]c4c(-c5ccccc5)c(C#N)nn4c3=O)nc12` [Compound C1205, 6-(7-chloro-4-methoxybenzo[d]oxazol-2-yl)-5-methyl-7-oxo-3-phenyl-4,7-dihydropyrazolo[1,5-a]pyrimidine-2-carbonitrile]: in series [1] (MCP-1 secretion), the “BMM IC50 M (MCP-1)” value is on record as “C”. Moreover, the IC50 is less than 20 µM in series [3] and greater than 100 µM in series [4]. In series [5] (RANTES secretion), the “BMM IC50 R (RANTES)” value was “C”.

`CCOC(=O)C1CC=C(c2[nH]c3c(-c4ccccc4)c(C(F)(F)F)nn3c(=O)c2-c2nc3c(OC)cccc3o2)CC1` (stereo not drawn) [Compound C1233, ethyl 4-(6-(4-methoxybenzo[d]oxazol-2-yl)-7-oxo-3-phenyl-2-(trifluoromethyl)-4,7-dihydropyrazolo[1,5-a]pyrimidin-5-yl)cyclohex-3-ene-1-carboxylate]: the “BMM IC50 M (MCP-1)” value in series [1] (MCP-1 secretion) was “C”. For the same compound, the IC50 in series [3] and in series [4] was less than 20 µM throughout. In addition, in series [5] (RANTES secretion), the “BMM IC50 R (RANTES)” value was “C”.

For the compound `COCc1[nH]c2c(-c3ccccc3)c(C(F)(F)F)nn2c(=O)c1-c1nnc(C2CCCC2)o1` [Compound D1018, 6-(5-cyclopentyl-1,3,4-oxadiazol-2-yl)-5-(methoxymethyl)-3-phenyl-2-(trifluoromethyl)pyrazolo[1,5-a]pyrimidin-7(4H)-one], the “BMM IC50 M (MCP-1)” value in series [1] (MCP-1 secretion) is given as “C”. Further, the IC50 in series [3] is less than 20 µM; in series [4], 20 to 100 µM. For the same compound, the “BMM IC50 R (RANTES)” value in series [5] (RANTES secretion) is recorded as “C”.

On to `CO[C@@](c1ccccc1)(c1nnc(-c2c(C)[nH]c3c(-c4ccccc4)c(C(F)(F)F)nn3c2=O)o1)C(F)(F)F` [Compound D1028, (S)-5-methyl-3-phenyl-6-(5-(2,2,2-trifluoro-1-methoxy-1-phenylethyl)-1,3,4-oxadiazol-2-yl)-2-(trifluoromethyl)pyrazolo[1,5-a]pyrimidin-7(4H)-one], for which the “BMM IC50 M (MCP-1)” value in series [1] (MCP-1 secretion) was “C”. Besides, the IC50 in series [3] is less than 20 µM; in series [4] it was greater than 100 µM. The “BMM IC50 R (RANTES)” value in series [5] (RANTES secretion) is listed as “C”.

For `Cc1[nH]c2c(-c3ccccc3)c(C(F)(F)F)nn2c(=O)c1-c1nnc(C#N)o1` [Compound D1071, 5-(5-methyl-7-oxo-3-phenyl-2-(trifluoromethyl)-4,7-dihydropyrazolo[1,5-a]pyrimidin-6-yl)-1,3,4-oxadiazole-2-carbonitrile], the IC50 in series [1] (MCP-1 secretion, read-out: BMM IC50 M (MCP-1)) is 5 to 20 µM; in series [3] it was less than 20 µM; in series [4], less than 20 µM; in series [5] (RANTES secretion, read-out: BMM IC50 R (RANTES)), less than 5 µM.
